From PubChem BioAssay (NCI)
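Tested at 5 concentrations; 48 h exposure; 96-well plates; endpoints linearly interpolated, else capped at highest concentration. GI50: concentration for 50% inhibition of growth. TGI is the concentration that stops growth completely.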

Assays:
Test in all cases: NCI anticancer screen, dose series, 48 h
NCI/ADR-RES ovarian = test system: NCI/ADR-RES ovarian
RXF 393 renal = test system: RXF 393 renal
HL-60(TB) leukemia = test system: HL-60(TB) leukemia
BT-549 breast = test system: BT-549 breast
OVCAR-5 ovarian = test system: OVCAR-5 ovarian
CCRF-CEM leukemia = test system: CCRF-CEM leukemia
MDA-MB-231 breast = test system: MDA-MB-231 breast
SN12C renal = test system: SN12C renal
HCT-15 colon = test system: HCT-15 colon
NCI-H226 lung = test system: NCI-H226 lung

Row | SMILES | GI50 (NCI/ADR-RES ovarian) [nM] | TGI (NCI/ADR-RES ovarian) [µM] | GI50 (RXF 393 renal) [µM] | TGI (RXF 393 renal) [µM] | GI50 (HL-60(TB) leukemia) [nM] | TGI (HL-60(TB) leukemia) [µM] | GI50 (BT-549 breast) [nM] | TGI (BT-549 breast) [µM] | GI50 (OVCAR-5 ovarian) [µM] | TGI (OVCAR-5 ovarian) [µM] | GI50 (CCRF-CEM leukemia) [nM] | TGI (CCRF-CEM leukemia) [µM] | GI50 (MDA-MB-231 breast) [nM] | TGI (MDA-MB-231 breast) [µM] | GI50 (SN12C renal) [µM] | TGI (SN12C renal) [µM] | GI50 (HCT-15 colon) [nM] | TGI (HCT-15 colon) [µM] | TGI (NCI-H226 lung) [µM] | GI50 (NCI-H226 lung) [µM]
1 | Cc1ccc2cnc(N)c(C#Cc3cncc(C(=O)Nc4ccc(CN5CCN(C)CC5)c(C(F)(F)F)c4)c3)c2c1 | 746 | 2.09 | 0.632 | 1.29 | 212 | 0.908 | 991 | 1.73 | 0.579 | 1.24 | 197 | 0.897 | 186 | 0.839 | 0.387 | 1.07 | 174 | 0.731 |  | 
2 | O=C1OC2C=CC1C1(CCOC1=O)C2 (stereo not drawn) |  |  |  |  |  | > 100 |  |  |  | > 100 |  | > 100 |  |  |  | > 100 |  | > 100 | > 100 | 
3 | CCCCCCCCCCCCCCCCNc1ccn(C2CC(OP(=O)(O)OCC3OC(n4cc(CC)c(=O)[nH]c4=O)CC3O)C(CO)O2)c(=O)n1 (stereo not drawn) |  | 84.9 |  | 46.4 |  | 20.2 |  |  |  | 62.8 |  |  |  | 68.3 |  | > 100 |  | 72.5 | > 100 | 
4 | C[C@@H]1OCC(O)C([C@H]2OC(c3ccccc3)=N[C@H]2CO)O1 (stereo partly drawn) |  | > 100 |  | > 100 |  | > 100 |  |  |  | > 100 |  | > 100 |  | > 100 |  | > 100 |  | > 100 | > 100 | 
5 | CC(=O)[C@H]1CCC2[C@@H]3CC=C4C(O)C(OS(=O)(=O)O)CC[C@]4(C)C3CC[C@@]21C (stereo partly drawn) |  | > 100 |  | > 100 |  | > 31.6 |  |  |  | > 100 |  | > 100 |  |  |  | > 100 |  | > 100 | > 100 | 
6 | CN(CCN(C)C(=O)CCn1ccc(=O)[nH]c1=O)C(=O)CCn1ccc(=O)[nH]c1=O |  |  |  | > 100 |  | > 100 |  |  |  | > 100 |  | > 100 |  |  |  | > 100 |  | > 100 | > 100 | 
7 | O=C(C=P(c1ccccc1)(c1ccccc1)c1ccccc1)c1ccc(-c2ccc(F)cc2F)cc1 |  | 13.2 |  | 7.29 |  | 5.13 |  |  |  | 9.29 |  | 7.06 |  | 4.92 |  | 5.31 |  | 7.81 | 7.16 | 
8 | CC1OC=CC(=O)C1O (stereo not drawn) |  |  |  | > 100 |  | > 100 |  |  |  | > 100 |  | > 100 |  |  |  | > 100 |  | > 100 |  | 
9 | O=C(O)CCCc1ccc2c(c1)CC1(C2)Cc2ccc(CCCC(=O)O)cc2C1 |  | > 100 |  | > 100 |  | > 100 |  |  |  | > 100 |  | > 100 |  | > 100 |  | > 100 |  | > 100 | > 100 | 
10 | CCOC(=O)c1cn(C)nc1N/C(C)=C\C(=O)c1ccccc1 |  | > 100 |  |  |  | > 100 |  | > 100 |  | > 100 |  | > 100 |  | > 100 |  | > 100 |  | > 100 | > 100 | 
11 | C/C(=C\c1ccccc1)C(=O)NCc1ccc(C(=O)NCCc2c[nH]c3ccccc23)cc1 |  | > 100 |  | > 100 |  |  |  | > 100 |  | > 100 |  | > 100 |  | > 100 |  | > 100 |  | > 100 | > 100 | 
12 | NC1CCCCC1N.O=S(=O)([O-])CCCN1CCN(CCO)CC1.O=S(=O)([O-])CCCN1CCN(CCO)CC1.[Pt+4] | 1470 | > 37 | 15.9 | 82.5 | 132 | 11.6 |  |  | 8.22 | > 38.7 | 2210 | > 50.5 |  |  | 7.56 | > 100 | 2630 | > 61.4 | > 100 | 5.26
13 | CC1(O)C(=O)OC2CC([C@]3(O)CCC4[C@@H]5C[C@H]6O[C@]67[C@@H](O)C=CC(=O)[C@]7(C)C5CC[C@@]43C)C1(C)C2 (stereo partly drawn) |  | > 100 |  | 13.2 |  | 19.9 |  | 26.1 |  | 74.1 |  | 9.54 |  | 36 |  | 63.4 |  | 51.9 |  | 
14 | COc1ccc(NC(=S)NNC(=O)c2cc(-c3ccccc3)nc3ccccc23)cc1 |  | 35.5 |  | 44.6 |  |  |  | 39.8 |  | 58.8 |  | 34.8 |  | 51.2 |  | 48.6 |  | 33.7 | 42.8 | 
15 | Cc1nn(-c2ccccn2)c2c1C(SC#N)=C(C=O)CC2 |  | 45.5 |  | 17.6 |  | 16 |  | 38.9 |  | 20.7 |  | 6.43 |  | 31.9 |  | 40.3 |  | 34 |  | 
16 | COc1cccc(C2CC(=O)c3cccn32)c1 (stereo not drawn) |  | > 100 |  | > 100 |  | 96 |  |  |  | > 100 |  | > 100 |  | > 100 |  | > 100 |  | > 100 | > 100 | 
17 | Cc1nnc(CC#N)n1NC(=O)CC#N |  | > 100 |  | > 100 |  | > 100 |  | > 100 |  | > 100 |  | > 100 |  | > 100 |  | > 100 |  | > 100 |  | 
18 | O=C(NCCCCNCCCNC(=O)OCc1ccccc1)OCc1ccccc1 |  | > 100 |  | 66.6 |  | 60.4 |  | > 100 |  | > 100 |  | 82.1 |  |  |  | > 100 |  | > 100 | > 100 | 
19 | CC(=O)O[C@H]1C(=O)[C@@]2(C)C(C(OC(=O)c3ccccc3)[C@]3(O)CC(OC(=O)C(O)C(NC(=O)c4ccccc4)c4ccc(C)cc4)C(C)=C1C3(C)C)[C@]1(OC(C)=O)CO[C@@H]1C[C@@H]2O (stereo partly drawn) |  |  |  | 0.13 |  | 2.55 |  |  |  | 0.237 |  | 9.81 |  |  |  | > 25 |  | 8.01 |  | 
20 | Oc1ccc2ccccc2c1OCc1nnc(CCCCCCCCc2nnc(COc3c(O)ccc4ccccc34)o2)o1 |  | > 100 |  | > 100 |  |  |  | > 100 |  | > 100 |  |  |  | > 100 |  | > 100 |  | > 100 | > 100 | 
21 | CC(C)c1nccn1Cc1ccc(Cl)cc1Cl |  | > 100 |  |  |  |  |  | > 100 |  | > 100 |  |  |  | > 100 |  | 88.7 |  | > 100 | 93.5 | 
22 | COC(=O)/C=C\C(C#N)(C#N)N=Cc1ccsc1 |  | > 19.7 |  | 3.72 |  |  |  | 5.7 |  | 16.2 |  | 0.93 |  | 12.2 |  | 9.73 |  | 2.9 | 45.3 | 
